33 compounds from US7678913B2, “Ureas as factor Xa inhibitors” (Portola Pharmaceuticals, Inc., priority 2004, dated 2010) can be followed below.

The target of the experiment is T1, human plasma protein factor Xa (Homo sapiens, UniProt P00742).
T1 construct: measure proteolytic activity of the enzyme (factor Xa); purchased Haematologic Technologies (Essex Junction, Vt.); host or cells: human plasma
Put plainly: Factor Xa IC50 determination (cleavage of chromogenic substrate S-2765). Type of experiment: biochemical. The settings on record: fXa 1 nM, S-2765 100 μM, Tris buffered saline pH 7.4, room temperature. Put shortly: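 Human plasma factor Xa (1 nM) preincubated 5 min at room temperature with inhibitor (0.01 nM–10 μM final) in Tris-buffered saline pH 7.4 with CaCl2, BSA and 5% DMSO. S-2765 added at 100 μM; pNA release at 405 nm over 2 min; initial velocities fitted to four-parameter equation for IC50, duplicates.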

T1 sequence (P00742 235-488 limits assumed): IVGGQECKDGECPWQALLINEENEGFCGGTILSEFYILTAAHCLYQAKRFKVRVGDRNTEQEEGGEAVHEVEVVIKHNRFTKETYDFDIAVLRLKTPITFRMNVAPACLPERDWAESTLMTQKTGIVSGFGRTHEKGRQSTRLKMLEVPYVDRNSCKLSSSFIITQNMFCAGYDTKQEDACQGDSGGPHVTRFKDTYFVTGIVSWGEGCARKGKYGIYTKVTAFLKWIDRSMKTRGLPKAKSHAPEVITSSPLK
T1 sequence (P00742 41-179 partner limits assumed): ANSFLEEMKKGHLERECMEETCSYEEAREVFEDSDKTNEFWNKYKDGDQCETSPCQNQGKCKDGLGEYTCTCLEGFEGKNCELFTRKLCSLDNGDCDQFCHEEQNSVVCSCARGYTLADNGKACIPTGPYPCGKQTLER

In the case of `CN(C)Cc1ccccc1-c1ccc(NC(=O)C(NC(=O)Nc2ccc(Br)cc2)c2ccccc2F)c(F)c1` (stereo not drawn) [Example 57, N-[4-(2-dimethylaminomethyl-phenyl)-2-fluorophenyl]-2-(2-fluorophenyl)-2-(4-bromophenylaminocarbonylamino)-acetamide], the IC50 is no more than 100 nM.
Regarding `CN1CCN=C1c1ccc(NC(=O)C(NC(=O)Nc2ccc(Cl)cc2)C(C)(C)C)cc1` (stereo not drawn) [Example 3, N-[4-(1-methyl-4,5-dihydro-1H-imidazol-2-yl)phenyl]-2-(1,1-dimethylethyl)-2-(4-chlorophenylaminocarbonylamino)-acetamide], the IC50 lay within 100 to 500 nM.
Take `C=CCC(NC(=O)Nc1ccc(Cl)cc1)C(=O)Nc1ccc(-c2cccc[n+]2[O-])cc1` (stereo not drawn) [Example 133, N-[4-(N-oxo-pyridin-2-yl)phenyl]-2-allyl-2-(4-chlorophenylaminocarbonylamino)-acetamide]: the IC50 was no more than 100 nM.
With `C=CCC(NC(=O)Nc1ccc(Cl)cc1)C(=O)Nc1ccc(C2=NCCN2C)cc1` (stereo not drawn) [Example 132, N-[4-(1-methyl-4,5-dihydro-1H-imidazol-2-yl)phenyl]-2-allyl-2-(4-chlorophenylaminocarbonylamino)-acetamide] the figure was no more than 100 nM.
Compound `CN1CCC(N2CCN(C(=O)C(NC(=O)Nc3ccc(Cl)cc3)c3ccccc3F)CC2)CC1` (stereo not drawn) [Example 127] registered an IC50 of no more than 100 nM.
`CN1CCN=C1c1ccc(NC(=O)C(NC(=O)Nc2ccc(Cl)cc2)c2ccccc2OC(F)(F)F)cc1` (stereo not drawn) [Example 120, N-[4-(1-methyl-4,5-dihydro-1H-imidazol-2-yl)phenyl]-2-(2-trifluoromethoxyphenyl)-2-(4-chlorophenylaminocarbonylamino)-acetamide] displayed an IC50 of no more than 100 nM.
In turn, `CN1CCN=C1c1ccc(NC(=O)C(CC(=O)N2CCOCC2)NC(=O)Nc2ccc(Cl)cc2)cc1` (stereo not drawn) [Example 65, N-[4-(1-methyl-4,5-dihydro-1H-imidazol-2-yl)phenyl]-2-(morpholin-4-ylcarbonylmethyl)-2-(4-chlorophenylaminocarbonylamino)-acetamide] displayed an IC50 of no less than 500 nM.
With `Cc1ccccc1C(NC(=O)Nc1ccc(Cl)cc1)C(=O)Nc1ccc(-n2ccnc2CN(C)C)cc1F` (stereo not drawn) [Example 85, N-[4-(2-dimethylaminomethyl-imidazol-1-yl)-2-fluorophenyl]-2-(2-methylphenyl)-2-(4-chlorophenylaminocarbonylamino)-acetamide], the IC50 is no more than 100 nM.
With `CN1CCN=C1c1ccc(NC(=O)C(NC(=O)Nc2ccc(Cl)cc2)c2ccc(Br)cc2)cc1` (stereo not drawn) [Example 119, N-[4-(1-methyl-4,5-dihydro-1H-imidazol-2-yl)phenyl]-2-(4-bromophenyl)-2-(4-chlorophenylaminocarbonylamino)-acetamide], the IC50 was no more than 100 nM.
With `Cc1ccccc1C(NC(=O)Nc1ccc(Cl)cc1)C(=O)Nc1ccc(C(=N)N2CCCC2)cc1` (stereo not drawn) [Example 87] the figure was no more than 100 nM.
The compound `O=C(Nc1ccc(Cl)cc1)NC(C(=O)Nc1ccc(-c2cccc[n+]2[O-])cc1)c1ccccc1F` (stereo not drawn) [Example 51, N-[4-(N-oxo-pyridin-2-yl)phenyl]-2-(2-fluorophenyl)-2-(4-chlorophenylaminocarbonylamino)-acetamide] yielded an IC50 of no more than 100 nM.
`CN1CCN=C1c1ccc(NC(=O)C(NC(=O)Nc2ccc(Cl)cc2)c2ccc(F)cc2)cc1` (stereo not drawn) [Example 10, N-[4-(1-methyl-4,5-dihydro-1H-imidazol-2-yl)phenyl]-2-(4-fluorophenyl)-2-(4-chlorophenylaminocarbonylamino)-acetamide]: the IC50 is no more than 100 nM.
In turn, `CN1CCN=C1c1ccc(NC(=O)[C@@H](CC(=O)OCc2ccccc2)NC(=O)Nc2ccc(Cl)cc2)cc1` [Example 61, (2R) N-[4-(1-methyl-4,5-dihydro-1H-imidazol-2-yl)phenyl]-2-benzyloxycarbonylmethyl-2-(4-chlorophenylaminocarbonylamino)-acetamide] returned an IC50 of 100 to 500 nM.
In the case of `CN1CCN=C1c1ccc(NC(=O)C(NC(=O)Nc2ccc(Cl)cc2)c2cccc(Cl)c2)cc1` (stereo not drawn) [Example 74, N-[4-(1-methyl-4,5-dihydro-1H-imidazol-2-yl)phenyl]-2-(3-chlorophenyl)-2-(4-chlorophenylaminocarbonylamino)-acetamide], the IC50 was no more than 100 nM.
For the compound `CN1CCN=C1c1ccc(NC(=O)C(NC(=O)Nc2ccc(Br)cc2)c2ccccc2F)cc1` (stereo not drawn) [Example 40, N-[4-(1-methyl-4,5-dihydro-1H-imidazol-2-yl)phenyl]-2-(2-fluorophenyl)-2-(4-bromophenylaminocarbonylamino)-acetamide], the IC50 was no more than 100 nM.
Compound `CN(C)C(=N)c1ccc(NC(=O)C(NC(=O)Nc2ccc(Cl)cc2)c2cccs2)cc1` (stereo not drawn) [Example 19, N-[4-(dimethylaminoimino)phenyl]-2-(2-thienyl)-2-(4-chlorophenylamino-carbonylamino)-acetamide] came in with an IC50 of no more than 100 nM.
`CN1CCN=C1c1ccc(NC(=O)C(Cc2ccccc2)NC(=O)Nc2ccc(Cl)cc2)cc1` (stereo not drawn) [Example 5, N-[4-(1-methyl-4,5-dihydro-1H-imidazol-2-yl)phenyl]-2-benzyl-2-(4-chlorophenylaminocarbonylamino)-acetamide] came in with an IC50 of no more than 100 nM.
`O=C(Nc1ccc(Cl)cc1)NC(C(=O)Nc1ccc(-c2cccc[n+]2[O-])cc1)c1ccccc1OC(F)(F)F` (stereo not drawn) [Example 121, N-[4-(N-oxo-pyridin-2-yl)phenyl]-2-(2-trifluoromethoxyphenyl)-2-(4-chlorophenylaminocarbonylamino)-acetamide]: the IC50 is no more than 100 nM.
To `O=C(Nc1ccc(Cl)cc1)NC(C(=O)N1CCC(N2CCCCC2=O)CC1)c1ccccc1F` (stereo not drawn) [Example 149, 4-(2-piperidinon-1-yl)piperidin-1-yl-2-(2-fluorophenyl)-2-(4-chlorophenylaminocarbonylamino)-acetamide] belongs no more than 100 nM; to `O=C(Nc1ccc(Cl)cc1)N[C@@H](C(=O)N1CCC(N2CCCCC2=O)CC1)c1ccccc1` [Example 141, (2R) 4-(2-piperidinon-1-yl)piperidin-1-yl-2-phenyl-2-(4-chlorophenylaminocarbonylamino)-acetamide], no more than 100 nM; to `Cc1ccccc1C(NC(=O)Nc1ccc(Cl)cc1)C(=O)Nc1ccc(-c2cccc[n+]2[O-])cc1` (stereo not drawn) [Example 88, N-[4-(N-oxo-pyridin-2-yl)phenyl]-2-(2-methylphenyl)-2-(4-chlorophenylaminocarbonylamino)-acetamide], no more than 100 nM.
To `N=C(c1ccc(NC(=O)C(NC(=O)Nc2ccc(Cl)cc2)c2ccccc2)cc1)N1CCCC1` (stereo not drawn) [Example 29] belongs no more than 100 nM.
`CN1CCN=C1c1ccc(NC(=O)C(NC(=O)Nc2ccc(Cl)cc2)c2ccccc2Cl)cc1` (stereo not drawn) [Example 75, N-[4-(1-methyl-4,5-dihydro-1H-imidazol-2-yl)phenyl]-2-(2-chlorophenyl)-2-(4-chlorophenylaminocarbonylamino)-acetamide] came in with an IC50 of no more than 100 nM.
Consider `C#CCN(C)C(=N)c1ccc(NC(=O)C(NC(=O)Nc2ccc(Cl)cc2)c2ccccc2)cc1` (stereo not drawn) [Example 27, N-[4-(N-methyl-N-propargylaminoimino)phenyl]-2-phenyl-2-(4-chlorophenylaminocarbonylamino)-acetamide], for which the IC50 was no more than 100 nM.
As to `COc1ccccc1C(NC(=O)Nc1ccc(Cl)cc1)C(=O)N1CCC(N2CCN(C)CC2=O)CC1` (stereo not drawn) [Example 151, 4-(4-methyl-2-piperazinon-1-yl)piperidin-1-yl-2-(2-methoxyphenyl)-2-(4-chlorophenylaminocarbonylamino)-acetamide], the IC50 was no less than 500 nM.
Consider `O=C(Nc1ccc(Cl)cc1)NC(C(=O)NCC1CCNCC1)c1ccccc1F` (stereo not drawn) [Example 53, N-(piperidin-4-ylmethyl)-2-(2-fluorophenyl)-2-(4-chlorophenylaminocarbonylamino)-acetamide], for which the IC50 is no less than 500 nM.
With `CN(C)Cc1nccn1-c1ccc(NC(=O)C(NC(=O)Nc2ccc(Cl)cc2)c2ccccc2F)c(F)c1` (stereo not drawn) [Example 58, N-[4-(2-dimethylaminomethyl-imidazol-1-yl)-2-fluorophenyl]-2-(2-fluorophenyl)-2-(4-chlorophenylaminocarbonylamino)-acetamide] the figure was no more than 100 nM; with `O=C(Nc1ccc(Cl)cc1)NC(C(=O)Nc1ccc(-c2cccc[n+]2[O-])cc1)c1ccccc1Oc1ccccc1` (stereo not drawn) [Example 125, N-[4-(N-oxo-pyridin-2-yl)phenyl]-2-(2-phenoxyphenyl)-2-(4-chlorophenylaminocarbonylamino)-acetamide], no more than 100 nM; with `CN1CCN=C1c1ccc(NC(=O)[C@H](NC(=O)Nc2ccc(Cl)cc2)c2ccccc2)cc1` [Example 32, (2R) N-[4-(1-methyl-4,5-dihydro-1H-imidazol-2-yl)phenyl]-2-phenyl-2-(4-chlorophenylaminocarbonylamino)-acetamide], no more than 100 nM.
Regarding `COc1ccccc1C(NC(=O)Nc1ccc(Cl)cc1)C(=O)N1CCC(N2CCCCC2=O)CC1` (stereo not drawn) [Example 150, 4-(2-piperidinon-1-yl)piperidin-1-yl-2-(2-methoxyphenyl)-2-(4-chlorophenylaminocarbonylamino)-acetamide], the IC50 was no more than 100 nM.
`C#CCC(NC(=O)Nc1ccc(Cl)cc1)C(=O)Nc1ccc(C2=NCCN2C)cc1` (stereo not drawn) [Example 129, N-[4-(1-methyl-4,5-dihydro-1H-imidazol-2-yl)phenyl]-2-propargyl-2-(4-chlorophenylaminocarbonylamino)-acetamide]: the IC50 is no more than 100 nM.
`CN1CCN=C1c1ccc(NC(=O)C(CC(N)=O)NC(=O)Nc2ccc(Cl)cc2)cc1` (stereo not drawn) [Example 71, N-[4-(1-methyl-4,5-dihydro-1H-imidazol-2-yl)phenyl]-2-(aminocarbonylmethyl)-2-(4-chlorophenylaminocarbonylamino)-acetamide] registered an IC50 of no less than 500 nM.
With `C#Cc1ccc(NC(=O)NC(C(=O)Nc2ccc(C3=NCCN3C)cc2)c2cccs2)cc1` (stereo not drawn) [Example 18, N-[4-(1-methyl-4,5-dihydro-1H-imidazol-2-yl)phenyl]-2-(2-thienyl)-2-(4-ethynylphenylaminocarbonylamino)-acetamide] the figure was 100 to 500 nM.
